Data: PMC7083565, “In vitro metabolism, reaction phenotyping, enzyme kinetics, CYP inhibition and induction potential of ataluren” (Pharmacology Research & Perspectives, 2020)

Legend:
Type in all cases: in vitro ADME
[1] = Plasma protein binding (ultrafiltration), dog; details: male, beagle, 50 to 50 000 ng/mL, mean ± SD, n = 3, read-out: percentage protein binding (converted)
Protocol: [^14C]‐Ataluren, at 50, 500, 5000, and 50 000 ng/mL or 0.175, 1.75, 17.5, and 175 µM, in male mouse, rat, dog, monkey, and human plasma, was incubated (n = 3) at 37°C for approximately 15 minutes, transferred into Centrifree® Micropartition Units (30 000 Da molecular weight cutoff, 1 mL capacity; Amicon Inc), and centrifuged at 37°C and 2000 g for approximately 10 minutes so that the amount of the sample filtered was approximately ≤ 20% of the total volume. After centrifugation, the entire ultrafiltrate was weighed and analyzed for radioactivity using liquid scintillation counting. The percent bound = (1‐Cu/Cm)×100, where Cu is the concentration of radioactivity in the ultrafiltrate and Cm is the concentration of radioactivity in the plasma before centrifugation.

CYP2C19 = assay: CYP induction in primary human hepatocytes: CYP2C19; details: male, 48 h
Protocol: (§1) Human hepatocytes isolated from three Caucasian males were transferred to 48‐well collagen‐coated plates at 0.14 × 10^6 cells/well in planting media for attachment. After attachment, planting media was replaced with sandwich media and the cells were incubated until clusters were established. […] The incubation solutions were aspirated and replaced with freshly prepared incubation solutions containing ataluren for an additional 24 hours. […] The incubation solutions were then aspirated and 150 µL of K‐H buffer containing CYP substrates were added. […] Metabolite formation in incubations with test compounds and control inhibitors was assessed with validated LC‐MS/MS methods for each of the reaction products as described in Table S2. Enzymatic activity for each CYP was calculated using the absolute amount of metabolite formed (pmol) divided by hepatocytes in the incubation (million cells) and the incubation time (minute). The relative fold induction in enzymatic activity was calculated by comparing the rate of metabolite formation for treatment groups to that of the solvent control group (reported as vehicle control%) or positive control group (reported as positive control%).

CYP2E1 = assay: CYP induction in primary human hepatocytes: CYP2E1; details: male, 48 h, 4 µM
Protocol: as §1

CYP3A4/5 = assay: CYP induction in primary human hepatocytes: CYP3A4/5; details: Testosterone 6β-hydroxylase, 48 hours, n=3
Protocol: Human hepatocytes isolated from three Caucasian males were transferred to 48‐well collagen‐coated plates at 0.14 × 10^6 cells/well in planting media for attachment. After attachment, planting media was replaced with sandwich media and the cells were incubated until clusters were established. […] The incubation solutions were aspirated and replaced with freshly prepared incubation solutions containing ataluren for an additional 24 hours. […] The incubation solutions were then aspirated and 150 µL of K‐H buffer containing CYP substrates were added. The hepatocytes were incubated for 30 minutes for CYP2C8 (10 µmol/L amodiaquine), 1 hour for CYP3A4 (125 µmol/L testosterone), and 4 hours for CYPs 1A2 (100 µmol/L phenacetin), 2A6 (100 µmol/L coumarin), 2B6 (150 µmol/L bupropion), 2C9 (50 µmol/L tolbutamide), 2C19 (100 µmol/L S‐mephenytoin), and 2E1 (300 µmol/L chlorzoxazone) activity assays. The reactions were stopped by the addition of 0.15 mL of ice‐cold methanol except that coumarin‐treated cells were incubated with β‐glucuronidase and aryl sulfatase for additional 1 hour to free 7‐hydroxycoumarin before the addition of 0.2 mL of ice‐cold methanol. Metabolite formation in incubations with test compounds and control inhibitors was assessed with validated LC‐MS/MS methods for each of the reaction products as described in Table S2. Enzymatic activity for each CYP was calculated using the absolute amount of metabolite formed (pmol) divided by hepatocytes in the incubation (million cells) and the incubation time (minute). The relative fold induction in enzymatic activity was calculated by comparing the rate of metabolite formation for treatment groups to that of the solvent control group (reported as vehicle control%) or positive control group (reported as positive control%).

## O=C(O)c1cccc(-c2noc(-c3ccccc3F)n2)c1 [ataluren, Ataluren]
[1]
  fraction unbound at 15 min: 0.025
CYP2C19; 4 µM
  Vehicle control %, Mean: 112%
CYP2C19; 400 µM
  Vehicle control %, Mean: 99.0%
CYP2E1
  Vehicle control %, Mean: 99.0%
CYP3A4/5; ataluren 4 µM
  Positive control %, Mean: 0.594%
  Vehicle control %, Mean: 103%
CYP3A4/5; ataluren 40 µM
  Positive control %, Mean: 1.52%
  Vehicle control %, Mean: 105%
CYP3A4/5; ataluren 400 µM
  Positive control %, Mean: 3.72%
  Vehicle control %, Mean: 109%
